Assay results: US9765075B2, “Substituted bridged urea analogs as sirtuin modulators” (GLAXOSMITHKLINE LLC, priority 2013, dated 2017)
Where two headings read alike, the source gives them in different places.

Biological target: T1, SIRT1 (Homo sapiens, UniProt Q96EB6)
T1 sequence (Q96EB6 1-747): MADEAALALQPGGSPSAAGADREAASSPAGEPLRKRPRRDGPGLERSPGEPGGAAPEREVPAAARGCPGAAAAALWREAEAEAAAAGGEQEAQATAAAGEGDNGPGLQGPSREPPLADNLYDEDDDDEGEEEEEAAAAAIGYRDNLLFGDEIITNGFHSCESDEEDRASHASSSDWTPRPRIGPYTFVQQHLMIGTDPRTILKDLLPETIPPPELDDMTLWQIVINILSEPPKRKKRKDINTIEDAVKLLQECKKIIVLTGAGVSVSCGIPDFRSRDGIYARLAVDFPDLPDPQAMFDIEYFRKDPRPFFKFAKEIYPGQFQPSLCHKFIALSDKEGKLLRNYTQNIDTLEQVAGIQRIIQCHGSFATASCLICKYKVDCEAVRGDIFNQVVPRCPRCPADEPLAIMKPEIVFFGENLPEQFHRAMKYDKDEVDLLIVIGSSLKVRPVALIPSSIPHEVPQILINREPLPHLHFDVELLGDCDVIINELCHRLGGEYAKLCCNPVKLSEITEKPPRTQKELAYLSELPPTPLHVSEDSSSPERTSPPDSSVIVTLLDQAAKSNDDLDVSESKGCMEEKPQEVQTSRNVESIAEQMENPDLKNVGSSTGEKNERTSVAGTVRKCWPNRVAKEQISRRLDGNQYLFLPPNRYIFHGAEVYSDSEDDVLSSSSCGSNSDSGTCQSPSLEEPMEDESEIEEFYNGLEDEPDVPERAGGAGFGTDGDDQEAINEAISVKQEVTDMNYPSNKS
Assay: Trp mass spectrometry assay (SIRT1 activation)
Assay type: biochemical
Conditions: for Emax: percent maximum fold activation of SIRT1, read-out: Tryp % Fold Act
Outline: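 Activation is expressed as EC1.5, the concentration raising activity 50% above DMSO control, and as maximum percent of control. Mass-spec readout was OAADPR or deacetylated Trp peptide after a formic-acid-quenched 25-min, 25 °C reaction: 10 nM bacterially expressed His-SIRT1, 0.5 μM acetyl-p53-derived peptide, 120 μM NAD+, pH 7.5 HEPES with […].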

[1] = concentration of test compound that results in 150% activation of SIRT1, Trp peptide substrate
[2] = Trp mass spectrometry assay, EC1.5 = concentration of test compound that results in 150% activation of SIRT1
[3] = Trp mass spectrometry assay, EC1.5 = concentration giving 150% activation of SIRT1

Tryp AVG EC1.5 (μM) [1] | Emax (Trp peptide substrate) [%] | Tryp AVG EC1.5 (μM) [2] | Emax (Trp mass spectrometry assay) [%] | Tryp AVG EC1.5 (μM) [3] | SMILES
B (EC1.5 1-25 μM) | ≥ 150 |  |  |  | O=C(Nc1ccncn1)N1c2nc(-c3cccnc3)ccc2N2CCC[C@H]1C2 [Example 456]
 |  | B (EC1.5 1-25 μM) | ≥ 150 |  | O=C(Nc1ccncn1)N1c2nc(-c3cccc(C(F)(F)F)c3)ccc2N2CCC1CC2 [Example 172]
 |  |  | ≥ 150 |  | O=C(Nc1cccnn1)N1c2nc(-c3cccc(C(F)(F)F)c3)ccc2N2CCC[C@H]1C2 [Example 28]
 |  |  | ≥ 150 | A (EC1.5<1 μM) | CC(C)C(=O)c1cccc(NC(=O)N2c3nc(-c4cccc(C(F)(F)F)c4)ccc3N3CC[C@H]2C3)c1 [Example 740]
 |  |  | ≥ 150 |  | CC(C)(C)c1csc(NC(=O)N2c3nc(-c4cccc(C(F)(F)F)c4)ccc3N3CC[C@H]2C3)n1 [Example 72]
 |  | B (EC1.5 1-25 μM) | ≥ 150 |  | COc1cc(NC(=O)N2c3nc(-c4cccc(N5CCCC5)c4)ccc3N3CC[C@H]2C3)ncn1 [Example 132]
B (EC1.5 1-25 μM) | ≥ 150 |  |  |  | Cc1csc(NC(=O)N2c3nc(N4CCCC(C(F)(F)F)C4)ccc3N3CCC[C@@H]2C3)n1 (stereo partly shown) [Example 312]
A (EC1.5<1 μM) | ≥ 150 |  |  |  | O=C(Nc1ccc(F)cn1)N1c2nc(-c3cccc(CC(O)CO)c3)ccc2N2CC[C@H]1C2 (stereo partly shown) [Example 356]
B (EC1.5 1-25 μM) | ≥ 150 |  |  |  | O=C(NCCCCc1ccccc1)N1c2nc(-c3cccc(C(F)(F)F)c3)ccc2N2CC[C@H]1C2 [Example 600]
 |  |  | ≥ 150 |  | COc1nccc(NC(=O)N2c3nc(-c4cccc(F)c4)ccc3N3CC[C@H]2C3)n1 [Example 60]
 |  | A (EC1.5<1 μM) | ≥ 150 |  | O=C(Nc1cccnc1)N1c2nc(-c3cccc(OC(F)(F)F)c3)ccc2N2CC[C@H]1C2 [Example 163]
 |  |  | ≥ 150 | A (EC1.5<1 μM) | O=C(Nc1cccc(-c2cnco2)c1)N1c2nc(N3CCCN(CC(F)(F)F)CC3)ccc2N2CC[C@H]1C2 [Example 741]
 |  |  | ≥ 150 | A (EC1.5<1 μM) | O=C(Nc1cc(-c2cnco2)cc(-c2cnco2)c1)N1c2nc(-c3cccc(C(F)(F)F)c3)ccc2N2CC[C@H]1C2 [Example 743]
A (EC1.5<1 μM) | ≥ 150 |  |  |  | O=C(Nc1ccccn1)N1c2nc(-c3cncc(Cl)c3)ccc2N2CC[C@H]1C2 [Example 260]
 |  |  | ≥ 150 | A (EC1.5<1 μM) | NCc1ncc(-c2cccc(NC(=O)N3c4nc(-c5cccc(C(F)(F)F)c5)ccc4N4CC[C@H]3C4)c2)o1 [Example 725]
 |  |  | ≥ 150 |  | COc1nccc(NC(=O)N2c3nc(-c4cccc(C(F)(F)F)c4)ccc3N3CCC[C@H]2C3)n1 [Example 32]
A (EC1.5<1 μM) | ≥ 150 |  |  |  | O=C(Nc1cccnc1)N1c2nc(-c3cncc(Cl)c3)ccc2N2CC[C@H]1C2 [Example 526]
B (EC1.5 1-25 μM) | ≥ 150 |  |  |  | Cc1ccncc1-c1ccc2c(n1)N(C(=O)Nc1cncc(F)c1)[C@H]1CCCN2C1 [Example 510]
B (EC1.5 1-25 μM) | ≥ 150 |  |  |  | COc1ncc(-c2ccc3c(n2)N(C(=O)Nc2ccccn2)[C@H]2CCN3C2)c(OC)n1 [Example 263]
 |  | B (EC1.5 1-25 μM) | ≥ 150 |  | Cc1cc(OCC(O)CO)nc(NC(=O)N2c3nc(-c4cccc(C(F)(F)F)c4)ccc3N3CC[C@H]2C3)n1 (stereo partly shown) [Example 26]
A (EC1.5<1 μM) | ≥ 150 |  |  |  | Cc1cncc(-c2ccc3c(n2)N(C(=O)Nc2cccnc2)[C@H]2CCCN3C2)c1 [Example 515]
 |  |  | ≥ 150 |  | CC(C)NC(=O)N1c2nc(-c3cccc(C(F)(F)F)c3)ccc2N2CC[C@H]1C2 [Example 51]
A (EC1.5<1 μM) | ≥ 150 |  |  |  | COc1cc(NC(=O)N2c3nc(-c4cccc(C(F)(F)F)c4)ccc3N3CCC[C@@H]2C3)ncn1 [Example 274]
 |  | A (EC1.5<1 μM) | ≥ 150 |  | COc1cc(-c2cccc(C(F)(F)F)c2)nc2c1N1CC[C@@H](C1)N2C(=O)Nc1ccccn1 [Example 159]
